“And” between values parts separate entries of the source, which are not always exact repeats. Identical values can stand only once.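 Test compounds were applied to cells in 96-well plates for 48 hours at 5 doses. GI50: concentration for 50% inhibition of growth. At the TGI there is no net growth.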
Key:
Assay in all cases: DTP human tumour cell line panel, 48 h
CCRF-CEM leukemia = tested on: CCRF-CEM leukemia
PC-3 prostate = tested on: PC-3 prostate
ACHN renal = tested on: ACHN renal
OVCAR-3 ovarian = tested on: OVCAR-3 ovarian
HOP-62 NSCLC = tested on: HOP-62 NSCLC
HCT-116 colon = tested on: HCT-116 colon
NCI-H460 lung = tested on: NCI-H460 lung
SK-OV-3 ovarian = tested on: SK-OV-3 ovarian
SF-295 CNS = tested on: SF-295 CNS
OVCAR-5 ovarian = tested on: OVCAR-5 ovarian

| SMILES | GI50 (CCRF-CEM leukemia) | TGI (CCRF-CEM leukemia) | GI50 (PC-3 prostate) | TGI (PC-3 prostate) | GI50 (ACHN renal) | TGI (ACHN renal) | GI50 (OVCAR-3 ovarian) | TGI (OVCAR-3 ovarian) | TGI (HOP-62 NSCLC) | GI50 (HCT-116 colon) | TGI (HCT-116 colon) | GI50 (NCI-H460 lung) | TGI (NCI-H460 lung) | TGI (SK-OV-3 ovarian) | GI50 (SF-295 CNS) | TGI (SF-295 CNS) | GI50 (OVCAR-5 ovarian) | TGI (OVCAR-5 ovarian) | GI50 (HOP-62 NSCLC) | GI50 (SK-OV-3 ovarian) |
| --- | --- | --- | --- | --- | --- | --- | --- | --- | --- | --- | --- | --- | --- | --- | --- | --- | --- | --- | --- | --- |
| CC(=O)O[C@H]1C(=O)[C@@]2(C)C([C@H](OC(=O)c3ccccc3)[C@]3(O)C[C@H](OC(=O)[C@H](O)[C@@H](NC(=O)c4ccccc4)c4ccccc4)C(C)=C1C3(C)C)[C@]1(OC(C)=O)CO[C@@H]1C[C@@H]2O (some centres undefined) | 0.0141 µM | > 50 µM | 0.0129 µM | > 50 µM | 0.945 µM | > 50 µM | 0.0056 µM | 0.0589 µM | > 50 µM | < 0.005 µM | > 50 µM | < 0.005 µM | > 50 µM | > 50 µM | 0.0173 µM | > 50 µM | 0.0226 µM | > 50 µM |  |  |
| C[C@]12CC[C@H]3[C@@H](CCC4=CC(=O)CC[C@@]43C)[C@@H]1CC[C@@H]2c1csc(N)n1 | 4.49 µM | 49 µM | 2.88 µM | 47.1 µM | 6.4 µM | 40.6 µM | 3.38 µM | 12.3 µM | 23.7 µM | 3.15 µM | 15.3 µM | 3.46 µM | 13.8 µM | 33.3 µM | 1.27 µM | 4.2 µM | 15 µM | 38.7 µM | 6.56 µM | 12.5 µM |
| COc1cc(CNc2nc3cc(N)cc(N)c3nc2-c2ccccc2)cc(OC)c1 | 1.72 µM | 5.68 µM | 3.05 µM | 14.4 µM | 9.42 µM | 47.3 µM | 1.86 µM | 4.52 µM | 31.3 µM | 3.08 µM | 11.3 µM | 10.5 µM | > 100 µM | 54.2 µM | 14.2 µM | 35.1 µM | 5.9 µM | 29.2 µM | 13.5 µM | 15.1 µM |
| Cc1nn(-c2ccc(Cl)cc2)c2ncnc(N/N=C/c3ccccc3O)c12 | 0.342 µM and 0.23 µM | > 100 µM | 1.09 µM and 0.568 µM | > 100 µM | 0.362 µM and 0.322 µM | 12 µM and 10.5 µM | 0.38 µM and 0.278 µM | 19.7 µM and 29.4 µM | 17.1 µM and 9.11 µM | 0.373 µM and 0.701 µM | 20.7 µM and > 43.3 µM | 0.375 µM and 0.347 µM | 3.14 µM and 5.67 µM | 26.5 µM and 10.8 µM | 0.841 µM and 1.12 µM | 9.93 µM and 24.4 µM | 4.16 µM and 2.34 µM | > 100 µM | 0.538 µM and 0.322 µM | 0.615 µM and 0.427 µM |
| CCn1cc(C(=O)O)c(=O)c2cc(F)c(N3CCN(S(=O)(=O)c4cccc5ccccc45)CC3)cc21 | 3.67 µM | > 100 µM | 2.66 µM | > 100 µM | 2.88 µM | > 100 µM | 3.69 µM | 15.6 µM | 39.2 µM | 3.88 µM | > 100 µM | 3.43 µM | > 100 µM | 13.4 µM |  |  | 3.38 µM | > 100 µM | 4.6 µM | 3.11 µM |
| CCn1c2c(c3ccccc3c1=O)C(=O)c1ccccc1-2 |  | > 100 µM |  | > 100 µM |  |  |  | > 100 µM | > 100 µM |  | > 100 µM |  |  | > 100 µM |  | > 100 µM |  | > 100 µM |  |  |
| O=[N+]([O-])c1ccc(Cl)c2c([N+](=O)[O-])cccc12 |  | > 10 µM |  | > 10 µM |  |  |  | > 10 µM | > 10 µM |  | 5.32 µM |  |  | 7.48 µM |  | > 10 µM |  |  |  |  |
| O=C1CC(c2ccccc2)Oc2ccccc21 (centres undefined) |  | 57.4 µM |  | > 100 µM |  | > 100 µM |  |  | > 100 µM |  | > 100 µM |  | > 100 µM | > 100 µM |  | > 100 µM |  |  |  |  |
